{"source": "patent US6255497A", "about": "“Method for the inhibition of ALDH-I useful in the treatment of alcohol dependence or alcohol abuse” (priority 1998, dated 2001)", "key": {"[1]": {"biological_target": "T1, ALDH-II (Homo sapiens, UniProt P00352)", "T1 sequence (P00352 1-501)": "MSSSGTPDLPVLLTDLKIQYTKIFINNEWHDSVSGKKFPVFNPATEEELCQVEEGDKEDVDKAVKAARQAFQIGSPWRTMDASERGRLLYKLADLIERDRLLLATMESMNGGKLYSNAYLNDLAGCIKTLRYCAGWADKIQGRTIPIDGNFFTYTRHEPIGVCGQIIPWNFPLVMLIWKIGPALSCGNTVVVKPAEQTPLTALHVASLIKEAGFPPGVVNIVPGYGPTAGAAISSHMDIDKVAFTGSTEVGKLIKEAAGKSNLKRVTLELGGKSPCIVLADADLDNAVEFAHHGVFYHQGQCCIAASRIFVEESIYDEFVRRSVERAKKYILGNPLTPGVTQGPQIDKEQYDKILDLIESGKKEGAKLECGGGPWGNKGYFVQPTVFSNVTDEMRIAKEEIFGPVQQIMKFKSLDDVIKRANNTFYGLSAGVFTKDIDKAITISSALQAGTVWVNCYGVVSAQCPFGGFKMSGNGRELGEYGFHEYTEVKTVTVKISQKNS", "assay": "ALDH-II inhibition by structurally related compounds, acetaldehyde as substrate", "format": "biochemical", "set-up": "A liver sample (50 g wet weight) with the usual Caucasian ALDH phenotype (both ALDH-I and ALDH-II present); from tissue; host or cells: human liver (autopsy), purified by CM-52, AMP-agarose and DEAE HPLC", "method": "*ALDH activities were assayed at 25° C. in 0.1 M sodium\npyrophosphate buffer pH 9.5 containins 0.15 M KCl, 1 mM NAD^+, various\nconcentrations of inhibitors and 5 and 200 μM acetaldehyde for ALDH-I\nand ALDH-II, respectively.\nFor the study of the inhibition of ALDH-I by structurally related compounds to generate the data shown in Tables IV and V, each individual compound was dissolved at different concentrations in methanol and was added to the assay medium as 10 μL aliquots. For controls, 10 […] of methanol was added to the assay medium. In a standard ALDH-I assay, the assay medium contains 0.1 M sodium pyrophosphate pH 9.5, 0.15 M KCl, 1 mM NAD^+, 1% methanol, 5 μM acetaldehyde, 5-10 nM ALDH-I and various concentrations of inhibitor. The enzyme reaction rates were measured by monitoring the production of NADH at 340 nm (ε=6.22 mM^-1 cm^-1) with a Varian Cary 219 spectrophotometer thermostated at 25° C. (Fong et al., 1989, supra). The inhibition of ALDH-I by the inhibitors was calculated as: [formula]\nwhere Vo is the enzyme reaction rate measured in the absence of inhibitor, and where Vi is the enzyme reaction rate measured in the presence of inhibitor. […] IC50 values are related to the underlying Ki values."}, "[2]": {"biological_target": "T2, ALDH-I (Homo sapiens, UniProt P05091)", "T2 sequence (P05091 18-517)": "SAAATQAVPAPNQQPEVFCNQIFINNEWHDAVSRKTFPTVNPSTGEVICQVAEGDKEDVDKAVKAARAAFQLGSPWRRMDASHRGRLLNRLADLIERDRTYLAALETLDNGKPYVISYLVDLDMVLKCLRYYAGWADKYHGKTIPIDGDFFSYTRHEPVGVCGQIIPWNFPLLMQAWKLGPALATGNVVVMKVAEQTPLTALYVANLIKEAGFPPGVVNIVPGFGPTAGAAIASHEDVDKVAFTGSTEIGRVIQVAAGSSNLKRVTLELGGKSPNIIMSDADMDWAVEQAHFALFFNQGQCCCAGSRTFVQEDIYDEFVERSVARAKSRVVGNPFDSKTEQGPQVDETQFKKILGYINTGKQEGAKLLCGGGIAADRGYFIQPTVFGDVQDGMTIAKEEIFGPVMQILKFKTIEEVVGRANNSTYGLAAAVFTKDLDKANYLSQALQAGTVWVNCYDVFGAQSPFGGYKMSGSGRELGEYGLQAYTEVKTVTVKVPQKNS", "assay": "Reversibility of ALDH-I inhibition (preincubation, then dilution)", "format": "biochemical", "set-up": "A liver sample (50 g wet weight) with the usual Caucasian ALDH phenotype (both ALDH-I and ALDH-II present); from tissue; host or cells: human liver (autopsy), purified by CM-52, AMP-agarose and DEAE HPLC"}, "[3]": {"tested_on": "golden hamsters", "assay": "Effect of daidzin on free choice ethanol intake in golden hamsters", "format": "in vivo, golden hamster", "conditions": "10 mg/day", "description": "Hamsters were chosen as described in Example 4 based on previous reports that they display high ethanol intake and preference in comparison with several other mammalian species, and that this was correlated with differences in ethanol metabolism. Kulkosky and Cornell, 1979, supra.\nThe animals used in these experiments are adult male golden hamsters (outbred, Lakeview Lak: LVG[SYR]), purchased from Charles River Laboratories, Wilmington, Mass. 01887. Upon arrival, hamsters are housed (4 per cage) with ad libitum access to food and tap water in a room maintained at 23° C. on a 12/12 light/dark cycle (light on 0600-1800 hr.) for 1 week. Following this acclimation period, each hamster is transferred to an individual stainless steel metabolic cage (26×18×17.5 cm) with a wire mesh floor for the remainder of the experiment. Each cage is equipped with a stainless steel food hopper located on the right side of the front wall which was kept filled with food. Two 50 ml drinking bottles fitted with stainless steel sipper tubes are placed on the left side of the front wall. Under the sipper tubes are funnels which collect and direct spillage to tubes placed outside of the cages. Fluids are provided mainly during the dark cycle (1800-0800 hr.) and fluid intake is measured in the morning at the same time each day, for example, at 0800 hr. During this baseline period, for example, 8 days, two drinking solutions are provided for each animal. One is tap water; the other is a 30% v/v solution of ethanol (100% USP). The position of the two drinking bottles on each cage is alternated daily to prevent the development of positional preference.\nIn other experiments, subcutaneous administration is preferably omitted, and each hamster receives only daily oral administration by feeding as described herein. […] This decline in alcohol intake was accompanied by a concomitant increase in water intake."}, "[4]": {"assay": "Solubility in water / aqueous media"}}, "data": [{"smiles": "O=c1c(-c2ccc(O)cc2)coc2cc(O[C@@H]3O[C@H](CO)[C@@H](O)[C@H](O)[C@H]3O)ccc12", "note": "[Daidzin, 7-glucoside of daidzein]", "values": [{"measurement": "IC50", "setting": "[1]", "result": 20, "unit": "µM"}, {"measurement": "reversibility of ALDH-I inhibition", "setting": "[2]", "result": "reversible"}, {"measurement": "inhibition at 0.001 µM", "setting": "[2]; read-out: final inhibition after 100-fold dilution", "result": 2, "unit": "%"}, {"measurement": "inhibition at 0.1 µM", "setting": "[2]; read-out: inhibition after preincubation with daidzin", "result": 70, "unit": "%"}, {"measurement": "effect apparent after the first dose, hamster Number 9", "setting": "[3]", "result": "fourth day after the first dose"}, {"measurement": "start of decline of alcohol intake after the first dose, hamster Number 6", "setting": "[3]", "result": 2, "unit": "days"}, {"measurement": "total fluid intake during daidzin administration", "setting": "[3]; hamster Number 6", "result": "slightly decreased"}, {"measurement": "total water intake (water bottle plus water in ethanol mixture)", "setting": "[3]; hamster Number 6", "result": "stayed nearly constant"}, {"measurement": "solubility in polyethylene glycol 400", "setting": "[4]; PEG 400", "result": "highly soluble"}, {"measurement": "solubility in glycerol", "setting": "[4]; glycerol", "result": "highly soluble"}]}]}
